Columns and labels:
Fgfr3 = Fgfr3 protein expression (immunohistochemistry of femurs, Western blot of costal primary chondrocytes); assay type: cell-based, mouse; details: A31; data not shown
Procedure: (§1) Six sets of ex vivo experiments were performed. Femur embryos at day E16.5 from WT (n=6) and Fgfr3^Y367C/+ (n=6) mice were used and incubated for 5 days in DMEM medium with antibiotics and 0.2% BSA (Sigma) supplemented with A31 or PD173074 (as control) at a concentration of 2 mM. Right femur was cultured in supplemented medium and compared with the left one cultured in control medium. Rib cage from E16.5 WT and Fgfr3^Y367C/+ mice embryos were isolated and stripped of all soft tissues. Primary chondrocytes were obtained from rib cages. The ribs were incubated in a pronase solution (Roche; 2 mg/ml) followed by a digestion in Collagenase A (Roche; 3 mg/ml) at 37° C. […] To establish the effect of the inhibitors, the right femur was cultured in supplemented medium and compared with the left one cultured in control medium The bone length was measured at the beginning (before treatment) and at the end of time course. […] The genotype of WT, Fgfr3^Y367C/+ and Fgfr3^−/− mice were determined by PCR of tail DNA as previously described (Pannier et al., Biochim Biophys Acta, 1792: 140-147, 2009). […]
Immunoprecipitation were performed by incubating […] rabbit anti-FGFR3 (Sigma)/[…] protein with protein A-agarose (Roche). […] Bound proteins were detected by chemiluminescence (ECL, Amersham). The blots were rehybrididized with an antipan-actin antibody for quantification (Millipore). […]

WT femurs = assay: Ex vivo culture of E16.5 embryonic femur explants, bone length, wild type; assay type: cell-based, mouse; details: A31 2 mM, 5 days of culture
Procedure: as §1, with “C. Isolated chondrocytes were plated out at a density of 2.105 cells in 6-well plates containing DMEM supplemented with 10% FCS and antibiotics, and were allowed to reach subconfluency. Cultures were supplemented with A31 or PD173074 (as control) at a concentration of 2 mM.” for “C.”

With `COc1cc(OC)cc(-c2cc3cnc(NCc4cn(CC5CCCN(C)C5)nn4)nc3nc2NC(=O)NC(C)(C)C)c1` (centres unmarked) [Compound A31] the “Fgfr3 expression in mutant femurs (immunohistochemical staining)” value (Fgfr3) was “large decrease of Fgfr3 expression” and the “longitudinal bone growth (gain in femur length)” value (WT femurs) was 1863±255 μm.
